# Measured values reported in patent US20260124222A1, “ISOTHIAZOLYLCARBOXAMIDE COMPOUNDS AND THEIR USE IN THERAPY” (HOTSPOT THERAPEUTICS, INC., priority 2022, published 2026).
# Biological target: T1, Avi-tagged FL MALT-1 (Homo sapiens, UniProt Q9UDY8)
# T1 construct: Avi-tagged FL MALT-1 (Pharmaron, stored at −70° C.); Avi-tag; purchased Pharmaron
# T1 sequence (Q9UDY8 1-824): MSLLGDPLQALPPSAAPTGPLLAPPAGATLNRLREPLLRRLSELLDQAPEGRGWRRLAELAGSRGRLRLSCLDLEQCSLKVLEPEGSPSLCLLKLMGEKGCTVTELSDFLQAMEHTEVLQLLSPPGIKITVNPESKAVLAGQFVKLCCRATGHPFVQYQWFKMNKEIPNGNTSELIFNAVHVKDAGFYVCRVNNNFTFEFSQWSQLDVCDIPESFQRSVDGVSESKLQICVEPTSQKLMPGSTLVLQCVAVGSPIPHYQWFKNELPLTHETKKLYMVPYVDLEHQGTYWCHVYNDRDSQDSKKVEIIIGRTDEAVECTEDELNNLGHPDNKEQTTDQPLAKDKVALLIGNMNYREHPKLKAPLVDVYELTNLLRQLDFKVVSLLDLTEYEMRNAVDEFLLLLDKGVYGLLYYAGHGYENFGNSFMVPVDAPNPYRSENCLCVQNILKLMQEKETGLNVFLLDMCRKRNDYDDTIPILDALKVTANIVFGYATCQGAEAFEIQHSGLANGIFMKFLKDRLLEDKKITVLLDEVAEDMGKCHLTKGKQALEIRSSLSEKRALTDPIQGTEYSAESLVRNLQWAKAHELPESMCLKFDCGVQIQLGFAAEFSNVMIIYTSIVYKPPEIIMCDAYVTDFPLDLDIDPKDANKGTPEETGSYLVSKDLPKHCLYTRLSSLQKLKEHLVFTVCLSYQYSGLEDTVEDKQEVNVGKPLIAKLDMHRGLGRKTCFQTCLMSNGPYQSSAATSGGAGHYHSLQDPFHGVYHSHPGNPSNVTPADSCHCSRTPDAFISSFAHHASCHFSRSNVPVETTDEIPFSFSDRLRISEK
# Assay: MALT-1 Fluorogenic Peptide Cleavage Assay (MALT1 inhibition assay)
# Format: biochemical
# Conditions: Ac-LRSR-AMC peptide substrate; 30 min pre-incubation, 90 min reaction at room temperature; fluorescence
# How it was run: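 Full-length Avi-tagged enzyme preincubated 30 min at room temperature with compound (2% DMSO final) in HEPES pH 6.89 buffer with sodium citrate, TCEP, EDTA and CHAPS. Ac-LRSR-AMC substrate added at Km or 10×Km (working stocks 50 or […] μM); fluorescence (ex 342/em 441 nm) after 90 min; IC50 from sigmoidal fit.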
row,Structure (SMILES),IC50
1,"Cc1cc(NC(=O)c2snc(-c3cccc4ncccc34)c2C2CC2)ccn1 [I-199, 4-cyclopropyl-N-(2-methylpyridin-4-yl)-3-(quinolin-5-yl)isothiazole-5-carboxamide]",≤ 400 nM
2,"O=C(Nc1ccnc(C(F)(F)F)c1)c1snc([C@H]2CCOC2)c1C1CC1 [I-205, (R)-4-cyclopropyl-3-(tetrahydrofuran-3-yl)-N-(2-(trifluoromethyl)pyridin-4-yl)isothiazole-5-carboxamide]",1000 to 2500 nM
3,"O=C(Nc1ccnc(C(F)(F)F)c1)c1snc(-c2cccn3nccc23)c1C1CC1 [I-210, 4-cyclopropyl-3-(pyrazolo[1,5-a]pyridine-4-yl)-N-(2-(trifluoromethyl)pyridine-4-yl)isothiazole-5-carboxamide]",≤ 400 nM
4,"O=C(Nc1ccnc(C(F)(F)F)c1)c1snc(-c2cccc3[nH]ncc23)c1C1CC1 [I-182, 4-cyclopropyl-3-(1H-indazol-4-yl)-N-(2-(trifluoromethyl)pyridin-4-yl)isothiazole-5-carboxamide]",≤ 400 nM
5,"Cn1cc2cccc(-c3nsc(C(=O)Nc4ccnc(C(F)(F)F)c4)c3C3CC3)c2n1 [I-208, 4-cyclopropyl-3-(2-methyl-2H-indazol-7-yl)-N-(2-(trifluoromethyl)pyridin-4-yl)isothiazole-5-carboxamide]",400 to 1000 nM
6,"O=C(Nc1cnc(C(=O)N2CC(O)C2)c(Cl)c1)c1snc(-c2ccccc2)c1C1CC1 [I-58, N-(5-CHLORO-6-(3-HYDROXYAZETIDINE-1-CARBONYL)PYRIDIN-3-YL)-4-CYCLOPROPYL-3-PHENYLISOTHIAZOLE-5-CARBOXAMIDE]",≤ 400 nM
7,"C=Cc1c(-c2ccccc2)nsc1C(=O)Nc1cnc(-n2nccn2)c(Cl)c1 [I-10, N-(5-CHLORO-6-(2H-1,2,3-TRIAZOL-2-YL) PYRIDIN-3-YL)-4-VINYL-3-PHENYLISOTHIAZOLE-5-CARBOXAMIDE]",≤ 400 nM
8,"N#Cc1cc(NC(=O)c2snc(-c3ccccc3)c2C(F)(F)F)cnc1-n1nccn1 [I-8, N-(5-CYANO-6-(2H-1,2,3-TRIAZOL-2-YL)PYRIDIN-3-YL)-3-PHENYL-4-(TRIFLUOROMETHYL)ISOTHIAZOLE-5-CARBOXAMIDE]",≤ 400 nM
9,"CN(C)C(=O)c1ncc(NC(=O)c2snc(-c3ccccc3)c2C2CC2)cc1Cl [I-50, N-(5-CHLORO-6-(DIMETHYLCARBAMOYL) PYRIDIN-3-YL)-4-CYCLOPROPYL-3-PHENYLISOTHIAZOLE-5-CARBOXAMIDE]",≤ 400 nM
10,"Cn1ncc2c(-c3nsc(C(=O)Nc4ccnc(C(F)(F)F)c4)c3C3CC3)cccc21 [I-152, 4-cyclopropyl-3-(1-methyl-1H-indazol-4-yl)-N-(2-(trifluoromethyl)pyridin-4-yl)isothiazole-5-carboxamide]",≤ 400 nM
11,"O=C(Nc1ccc(C(=O)N2CC(O)C2)c(Cl)c1)c1snc(-c2ccccc2)c1C1CC1 [I-17, N-(3-CHLORO-4-(3-HYDROXYAZETIDINE-1-CARBONYL)PHENYL)-3-PHENYL-4—(CYCLOPROPYL)ISOTHIAZOLE-5-CARBOXAMIDE]",≤ 400 nM
12,"O=C(Nc1ccnc(C(F)(F)F)c1)c1snc(-c2ccccc2C(F)(F)F)c1C1CC1 [I-164, 4-cyclopropyl-3-(2-(trifluoromethyl)phenyl)-N-(2-(trifluoromethyl)pyridin-4-yl)isothiazole-5-carboxamide]",≤ 400 nM
13,"CN(C)c1ccc(NC(=O)c2snc(-c3ccccc3)c2C2CC2)cn1 [I-46, 4-CYCLOPROPYL-N-(6-(DIMETHYLAMINO) PYRIDIN-3-YL)-3-PHENYLISOTHIAZOLE-5-CARBOXAMIDE]",> 2500 nM
14,N#Cc1cc(NC(=O)c2snc(-c3cccc4ncsc34)c2C2CC2)cnc1-n1nccn1 [I-100],≤ 400 nM
15,"O=C(Nc1ccnc(C(F)(F)F)c1)c1snc(-c2cccc3nccn23)c1C1CC1 [I-132, 4-cyclopropyl-3-(imidazo[1,2-a]pyridin-5-yl)-N-(2-(trifluoromethyl)pyridin-4-yl)isothiazole-5-carboxamide]",≤ 400 nM
16,"O=C(Nc1cnc(-n2nccn2)c(Cl)c1)c1snc(-c2ccccc2)c1I [I-1, N-(5-CHLORO-6-(2H-1,2,3-TRIAZOL-2-YL)PYRIDIN-3-YL)-4-IODO-3-PHENYLISOTHIAZOLE-5-CARBOXAMIDE]",≤ 400 nM
